For 19 compounds, IC50 results are on record in patent publication US9493474B2, “Inhibitors of the renal outer medullary potassium channel” (Merck Sharp & Dohme Corp., priority 2011, dated 2016).

Molecules are shown by their SMILES.

The target in one assay is Kir1.1 (ROMK1) (Homo sapiens (Human), UniProt P48048). The experiment in a line: Electrophysiology Assay (whole cell voltage clamp, IonWorks Quattro). In kind it is cell-based. Particulars: Chinese hamster ovary cells stably expressing Kir1.1; block at voltage step to 0 mV, 6 minutes compound incubation; read-out: EP Assay IC50. An excerpt: (§1) Several assays may be used to measure functional inhibition of the ROMK channel by compounds of the instant invention. One assay that can be used is an electrophysiology assay that measures the electrical current that is generated as potassium permeates through the channel. Another ROMK functional assay makes use of the ability of thallium to permeate through open ROMK channels and increase the fluorescence of a dye previously loaded into the cells. Under control conditions, cells loaded with dye and exposed to thallium-containing medium display a time-dependent increase in fluorescence, the rate of which depends on number of functional channels. When cells are incubated in the presence of a channel inhibitor, the increase in fluorescence is attenuated in a concentration-dependent manner, and IC50 values of inhibition by compounds can be accurately determined. This assay has been established with cell lines expressing either human, or rat ROMK channels, and operates in 384-well format.
Block of Kir1.1 (ROMK1) currents was examined by whole cell voltage clamp (Hamill et. al. Pfluegers Archives 391:85-100 (1981)) using the IonWorks® Quattro automated electrophysiology platform (Molecular Devices, Sunnyvale, Calif.). Chinese hamster ovary cells stably expressing Kir1.1 channels were maintained in T-75 flasks in cell culture media in a humidified 10% CO2 incubator at 37° C. Prior to an experiment, Kir1.1 expression was induced by overnight incubation with 1 mM sodium butyrate. On the day of the experiment, cells were dissociated with 2.5 ml of Versene™ (Invitrogen 15040-066) for approximately 6 minutes at 37° C. and suspended in 10 ml of bath solution containing (in mM): 150 NaCl, 10 KCl, 2.7 CaCl2, 0.5 MgCl2, 5 HEPES, pH 7.4. After centrifugation, the cell pellet was resuspended in approximately 4.0 ml of bath solution and placed in the IonWorks® instrument. The intracellular solution consisted of (in mM): 80 K gluconate, 40 KCl, 20 KF, 3.2 MgCl2, 3 EGTA, 5 Hepes, pH 7.4. Electrical access to the cytoplasm was achieved by perforation in 0.13 mg/ml amphotericin B for 4 minutes. Amphotericin B (Sigma A-4888) was prepared as a 40 mg/ml solution in DMSO.
Voltage protocols and current recordings were performed using the IonWorks® HT software/hardware system. Currents were sampled at 1 kHz. No correction for liquid junction potentials was used. The test pulse, consisting of a 100 ms step to 0 mV from a holding potential of −70 mV, followed by a 100 ms voltage ramp from −70 mV to +70 mV, was applied before and after a 6 minutes compound incubation period. Test compounds were prepared by diluting DMSO stock solutions into the bath solution at 3× the final concentration and placed in the instrument in 96-well polypropylene plates. Current amplitudes were measured using the IonWorks® software. To assess compound potency, the fractional block during the voltage step to 0 mV was calculated in Microsoft® Excel (Microsoft, Redmond, Calif.), and dose-response curves were fitted with Igor Pro 4.0 (WaveMetrics, Lake Oswego, Oreg.).

Another assay has as its target hROMK (hKir1.1) (Homo sapiens (Human), UniProt P48048). The experiment in a line: Thallium Flux Assay. Format: cell-based. Particulars: HEK293 cells stably expressing hROMK (hKir1.1); FLIPR-Tetra, 30 min compound incubation.
Text: as §1
HEK293 cells stably expressing hROMK (hKir1.1) were grown at 37° C. in a 10% CO2 humidified incubator in complete growth media: Dulbecco's Modified Eagle Medium supplemented with non-essential amino acids, Penicillin/Streptomycin/Glutamine, G418 and FBS. At >80% confluency, the media was aspirated from the flask and the sample was rinsed with 10 ml Calcium/Magnesium-free PBS. […] To dislodge the cell, the side of the flask was gently banged with a hand. The cells were triturated completely and then transferred to 25 ml complete media. The sample was then centrifuged at 1,500 rpm for 6 minutes, followed by resuspension in complete growth media and then cell concentration was determined. […] Under ideal growth conditions and appropriate tissue culture practices, this cell line is stable for 40-45 passages.
• FluxOR™ Reagent (Component A) • FluxOR™ Assay Buffer (Component B)—10× Concentrate • PowerLoad™ Concentrate (Component C)—100× Concentrate • Probenecid (Component D)—Lyophilized sample is kept at −20° C. Water soluble, 100× after solubilization in 1 ml water. […] Store at 4° C. • Thallium sulfate (Tl2SO4) Concentrate (Component G)—50 mM in water. […] Can be stored at room temperature • Stimulant Buffer (prepared at 5× final concentration in 1× FluxOR™ Chloride-Free Buffer): 7.5 mM Thallium sulfate and 0.75 mM Potassium sulfate (to give a final assay concentration of 3 mM Thallium/0.3 mM Potassium). Store at 4° C. when not in use. If kept sterile, this solution is good for months. Assay Protocol—
The ROMK channel functional thallium flux assay is performed in 384 wells, using the FLIPR-Tetra instrument. HEK-hKir1.1 cells are seeded in Poly-D-Lysine microplates and kept in a 37° C.-10% CO2 incubator overnight. On the day of the experiment, the growth media is replaced with the FluxOR™ reagent loading buffer and incubated, protected from light, at ambient temperature (23-25° C.) for 90 min. The loading buffer is replaced with assay buffer±test compound followed by 30 min incubation at ambient temperature, where the Thallium/Potassium stimulant is added to the microplate.
• 1. Seed HEK-hKir1.1 cells (50 μl at 20,000 cells/well) in 384-well PDL coated Microplates • 2. Allow cells to adhere overnight in humidified 37° C./10% CO2 incubator • 3. Completely remove cell growth media from microplate and replace with 25 μl loading buffer • 4. Incubate Microplate at room temperature, protected form light, for 90 min • 5. Remove loading buffer and replace with 25 μl 1× Assay Buffer±test compound. • 6. Incubate microplate at room temperature, protected form light, for 30 min • 7. […] Excitation=400 nm, Emission=460 & 580 nm. Collect data for 10 min. Data Calculation—
The fluorescence intensity of wells containing 3 μM of a standard control ROMK inhibitor of the present invention is used to define the ROMK-sensitive component of thallium flux. Fluorescence in the presence of test compounds is normalized to control values to provide % fluorescence change.

Chain of hROMK (hKir1.1) (P48048 whole entry): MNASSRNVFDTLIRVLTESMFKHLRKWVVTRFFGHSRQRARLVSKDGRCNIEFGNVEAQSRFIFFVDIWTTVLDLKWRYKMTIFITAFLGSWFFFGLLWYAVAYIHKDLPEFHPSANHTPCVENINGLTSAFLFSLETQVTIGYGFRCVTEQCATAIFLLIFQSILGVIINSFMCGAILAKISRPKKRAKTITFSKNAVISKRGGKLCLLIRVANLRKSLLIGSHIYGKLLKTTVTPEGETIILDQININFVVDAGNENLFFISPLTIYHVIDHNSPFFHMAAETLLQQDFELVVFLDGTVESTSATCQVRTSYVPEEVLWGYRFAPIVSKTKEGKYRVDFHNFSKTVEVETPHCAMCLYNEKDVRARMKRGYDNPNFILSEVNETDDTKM
Chain of Kir1.1 (ROMK1) (P48048 whole entry, species assumed): as the sequence (P48048 whole entry) above

In the case of `Cc1c([C@@H](O)CN2CCC3CN(CC(O)c4ccc(C#N)cn4)CC32)ccc2c1COC2=O` (single isomer, unassigned) [Example 7A], the IC50 is 0.047 µM at Kir1.1 (ROMK1) and 0.152 µM against hROMK (hKir1.1). The corresponding values for `Cc1c([C@@H](O)CN2CCCC3(CCN(C[C@H](O)c4ccc5c(c4C)COC5=O)C3)C2)ccc2c1COC2=O` (stereo partly drawn) [Example 1, 5,5′-{2,7-Diazaspiro[4.5]decane-2,7-diylbis[(1R)-1-hydroxyethane-2,1-diyl]}bis(4-methyl-2-benzofuran-1(3H)-one)] are 0.117 µM and 0.274 µM. For the compound `Cc1c([C@@H](O)CN2CC3CN(CC(O)c4ccc(C#N)cn4)C3C2)ccc2c1COC2=O` (single isomer, unassigned) [Example 22], on hROMK (hKir1.1), the IC50 worked out at 0.916 µM. Turning to `Cc1c([C@@H](O)CN2CCC3CN(CC(O)c4ccc(C#N)cn4)CC32)ccc2c1COC2=O` (single isomer, unassigned) [Example 7B], the figures for the IC50 at Kir1.1 (ROMK1) and against hROMK (hKir1.1) were 2.4 µM and 0.566 µM, respectively. Compound `Cc1c([C@@H](O)CN2CCC3CN(S(=O)(=O)c4ccc(-n5cnnn5)cc4)CC32)ccc2c1COC2=O` (stereo partly drawn) [Example 20, 5-((1R)-2-(5-(4-(1H-Tetrazol-1-yl)phenylsulfonyl)hexahydropyrrolo[3,4-b]pyrrol-1(2H)-yl)-1-hydroxyethyl)-4-methylisobenzofuran-1(3H)-one] had an IC50 against hROMK (hKir1.1) of 1.05 µM. Consider `Cc1c([C@@H](O)CN2CCCC3(CCCN(C[C@H](O)c4ccc5c(c4C)COC5=O)C3)C2)ccc2c1COC2=O` [Example 6, 5,5′-{2,8-Diazaspiro[5.5]undecane-2,8-diylbis[(1R)-1-hydroxyethane-2,1-diyl]}bis(4-methyl-2-benzofuran-1(3H)-one)], for which the half-maximal inhibitory concentration (IC50) at Kir1.1 (ROMK1) was 0.201 µM; against hROMK (hKir1.1), 0.359 µM. Take `Cc1cc(S(=O)(=O)N2CCCC23CCN(C[C@H](O)c2ccc4c(c2C)COC4=O)C3)ccc1-n1cnnn1` (single isomer, unassigned) [Example 18A]: the IC50 on Kir1.1 (ROMK1) worked out at 0.079 µM; against hROMK (hKir1.1), 0.138 µM. Take `Cc1c([C@@H](O)CN2CCC3CN(C(=O)c4ccc(-n5cnnn5)cn4)CC32)ccc2c1COC2=O` (stereo partly drawn) [Example 16, 5-((1R)-2-(5-(5-(1H-tetrazol-1-yl)picolinoyl)hexahydropyrrolo[3,4-b]pyrrol-1(2H)-yl)-1-hydroxyethyl)-4-methylisobenzofuran-1(3H)-one]: the IC50 on Kir1.1 (ROMK1) worked out at 0.85 µM; at hROMK (hKir1.1) it was 0.602 µM.

Take `Cc1c([C@@H](O)CN2CC3CCN(C(=O)c4ccc(-n5cnnn5)nc4)CC3C2)ccc2c1COC2=O` (stereo partly drawn) [Example 15, 5-((1R)-2-(5-(6-(1H-Tetrazol-1-yl)nicotinoyl)-1H-pyrrolo[3,4-c]_yridine-2(3H,3aH,4H,5H,6H,7H,7aH)-yl)-1-hydroxyethyl)-4-methylisobenzofuran-1(3H)-one]: the IC50 is 0.2 µM at Kir1.1 (ROMK1) and 0.103 µM against hROMK (hKir1.1). For `Cc1c([C@@H](O)CN2C(C)CC3CN(CC(O)c4ccc(C#N)cn4)CC32)ccc2c1COC2=O` (single isomer, unassigned) [Example 11B], the IC50 on Kir1.1 (ROMK1) is 0.053 µM; against hROMK (hKir1.1), 0.091 µM.

In turn, `Cc1c([C@@H](O)CN2CC3CCN(C(=O)c4ccc(C#N)cn4)CC3C2)ccc2c1COC2=O` (stereo partly drawn) [Example 3, 6-({2-[(2R)-2-Hydroxy-2-(4-methyl-1-oxo-1,3-dihydro-2-benzofuran-5-yl)ethyl]octahydro-5H-pyrrolo[3,4-c]pyridine-5-yl}carbonyl)pyridine-3-carbonitrile] came in with an IC50 at hROMK (hKir1.1) of 0.865 µM. As for `Cc1c([C@@H](O)CN2CCC3(CCCN3C[C@H](O)c3ccc4c(c3C)COC4=O)C2)ccc2c1COC2=O` (single isomer, unassigned) [Example 10B], the results for the IC50 at Kir1.1 (ROMK1) and on hROMK (hKir1.1) were 0.184 µM and 0.076 µM, respectively. In turn, `Cc1c([C@@H](O)CN2CCC3CN(S(=O)(=O)c4ccc(C#N)cc4)CC32)ccc2c1COC2=O` (single isomer, unassigned) [Example 8B] returned an IC50 at hROMK (hKir1.1) of 0.662 µM. As for `Cc1c([C@@H](O)CN2CCCC3(CCCN3C[C@H](O)c3ccc4c(c3C)COC4=O)C2)ccc2c1COC2=O` (stereo partly drawn) [Example 5, 5,5′-{1,7-Diazaspiro[4.5]decane-1,7-diylbis[(1R)-1-hydroxyethane-2,1-diyl]}bis(4-methyl-2-benzofuran-1(3H)-one)], the IC50 at Kir1.1 (ROMK1) came to 0.348 µM; on hROMK (hKir1.1), 0.737 µM. Consider `Cc1cc(S(=O)(=O)N2CCCC23CCN(C[C@H](O)c2ccc4c(c2C)COC4=O)C3)ccc1-n1cnnn1` (single isomer, unassigned) [Example 18B], for which the figures for the IC50 at Kir1.1 (ROMK1) and against hROMK (hKir1.1) were 0.125 µM and 0.294 µM, respectively. The corresponding values for `Cc1c([C@@H](O)CN2CC3CN(CC(O)c4ccc(C#N)cn4)C3C2)ccc2c1COC2=O` (single isomer, unassigned) [Example 23] are 1.8 µM and 0.54 µM.

`Cc1c([C@@H](O)CN2CCC3(CCCN(C(=O)c4ccc(-n5cnnn5)nc4)C3)C2)ccc2c1COC2=O` (stereo partly drawn) [Example 14, 5-((1R)-2-(7-(6-(1H-tetrazol-1-yl)nicotinoyl)-2,7-diazaspiro[4.5]decan-2-yl)-1-hydroxyethyl)-4-methylisobenzofuran-1(3H)-one]: the half-inhibitory concentration (IC50) at Kir1.1 (ROMK1) turned out to be 0.108 µM; on hROMK (hKir1.1), 0.241 µM.

Turning to `N#Cc1ccc(S(=O)(=O)N2CCC3CN(C[C@H](O)c4ccc5c(c4)COC5=O)CC32)cc1` (stereo partly drawn) [Example 9, 4-(5-((R)-2-Hydroxy-2-(1-oxo-1,3-dihydroisobenzofuran-5-yl)ethyl)hexahydropyrrolo[3,4-b]pyrrol-1(2H)-ylsulfonyl)benzonitrile], half-maximal inhibition against hROMK (hKir1.1) (IC50) required 0.234 µM.

As for `Cc1c([C@@H](O)CN2C(C)CC3CN(CC(O)c4ccc(C#N)cn4)CC32)ccc2c1COC2=O` (single isomer, unassigned) [Example 11A], the IC50 on hROMK (hKir1.1) amounted to 0.093 µM.

The term IC50 denotes the point on the concentration scale where inhibition reaches its midpoint.
